From ChEMBL document CHEMBL1201862, “PubChem BioAssay data set” (2004)
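A five-concentration, 48-hour dose response in 96-well plates underlies each endpoint, interpolated linearly between surrounding concentrations. GI50: concentration for 50% inhibition of growth.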 Active and inactive are the calls of the source. No stated cut-off is given here; in the data, active = GI50 up to about 1.1 µM and inactive = higher.

Experiments:
Assay in all cases: inhibition of tumour cell growth, NCI panel, 48 h
T47D = test system: T47D
NCI-H460 = test system: NCI-H460
MOLT-4 = test system: MOLT-4
UACC-257 = test system: UACC-257
ACHN = test system: ACHN
UACC-62 = test system: UACC-62
HL-60 = test system: HL-60
COLO 205 = test system: COLO 205
OVCAR-8 = test system: OVCAR-8
SNB-75 = test system: SNB-75
RXF 393 = test system: RXF 393
DU-145 = test system: DU-145
LOX IMVI = test system: LOX IMVI
Malme-3M = test system: Malme-3M
CCRF-CEM = test system: CCRF-CEM
Hs-578T = test system: Hs-578T
UO-31 = test system: UO-31
A549 = test system: A549
SK-MEL-28 = test system: SK-MEL-28
SK-MEL-5 = test system: SK-MEL-5
OVCAR-5 = test system: OVCAR-5
SR = test system: SR
HT-29 = test system: HT-29
HOP-92 = test system: HOP-92
TK-10 = test system: TK-10
SK-MEL-2 = test system: SK-MEL-2
K562 = test system: K562
SF-268 = test system: SF-268
IGROV-1 = test system: IGROV-1
NCI/ADR-RES = test system: NCI/ADR-RES
SF-295 = test system: SF-295
PC-3 = test system: PC-3
MCF7 = test system: MCF7
NCI-H522 = test system: NCI-H522
EKVX = test system: EKVX
786-0 = test system: 786-0
MDA-N = test system: MDA-N
MDA-MB-231 = test system: MDA-MB-231
CAKI-1 = test system: CAKI-1
HCT-15 = test system: HCT-15
SF-539 = test system: SF-539
HOP-62 = test system: HOP-62
HCC 2998 = test system: HCC 2998
RPMI-8226 = test system: RPMI-8226
SN12C = test system: SN12C
M14 = test system: M14
KM12 = test system: KM12
MDA-MB-435 = test system: MDA-MB-435
U-251 = test system: U-251
BT-549 = test system: BT-549
HCT-116 = test system: HCT-116
NCI-H226 = test system: NCI-H226
SK-OV-3 = test system: SK-OV-3
SNB-19 = test system: SNB-19
SW-620 = test system: SW-620
OVCAR-4 = test system: OVCAR-4

N#C/C(=C\c1ccc(Cl)cc1)c1nc(-c2cc3ccccc3oc2=O)cs1
GI50 (T47D): 44 µM (inactive) | GI50 (NCI-H460): 42.6 µM (inactive) | GI50 (MOLT-4): > 100 µM (inactive) | GI50 (UACC-257): 47.6 µM (inactive) | GI50 (ACHN): 38.2 µM (inactive) | GI50 (UACC-62): 28.9 µM (inactive) | GI50 (HL-60): > 100 µM (inactive) | GI50 (COLO 205): > 100 µM (inactive) | GI50 (OVCAR-8): 49.2 µM (inactive) | GI50 (SNB-75): 26.9 µM (inactive) | GI50 (RXF 393): 83 µM (inactive) | GI50 (DU-145): 48.5 µM (inactive) | GI50 (LOX IMVI): 59.6 µM (inactive) | GI50 (Malme-3M): 41.7 µM (inactive) | GI50 (CCRF-CEM): > 100 µM (inactive) | GI50 (Hs-578T): 8.87 µM (inactive) | GI50 (UO-31): 80.7 µM (inactive) | GI50 (A549): 86.5 µM (inactive) | GI50 (SK-MEL-28): 95.9 µM (inactive) | GI50 (SK-MEL-5): 90.4 µM (inactive) | GI50 (OVCAR-5): > 100 µM (inactive) | GI50 (SR): > 100 µM (inactive) | GI50 (HT-29): > 100 µM (inactive) | GI50 (HOP-92): 15.7 µM (inactive) | GI50 (TK-10): 26.9 µM (inactive) | GI50 (SK-MEL-2): > 100 µM (inactive) | GI50 (K562): > 100 µM (inactive) | GI50 (SF-268): 34.8 µM (inactive) | GI50 (IGROV-1): > 100 µM (inactive) | GI50 (NCI/ADR-RES): 39.6 µM (inactive) | GI50 (SF-295): 44.4 µM (inactive) | GI50 (PC-3): > 100 µM (inactive) | GI50 (MCF7): > 100 µM (inactive) | GI50 (NCI-H522): 15.6 µM (inactive) | GI50 (EKVX): > 100 µM (inactive) | GI50 (786-0): 30.3 µM (inactive) | GI50 (MDA-N): 59.8 µM (inactive) | GI50 (MDA-MB-231): 22 µM (inactive) | GI50 (CAKI-1): > 100 µM (inactive) | GI50 (HCT-15): > 100 µM | GI50 (SF-539): 39.8 µM (inactive) | GI50 (HOP-62): 24.8 µM (inactive) | GI50 (HCC 2998): 57.5 µM (inactive) | GI50 (RPMI-8226): > 100 µM (inactive) | GI50 (SN12C): 70.3 µM (inactive) | GI50 (M14): 51.5 µM (inactive) | GI50 (KM12): 74.1 µM (inactive) | GI50 (MDA-MB-435): > 100 µM (inactive) | GI50 (U-251): 30.8 µM (inactive) | GI50 (BT-549): 14.9 µM (inactive) | GI50 (HCT-116): 67.6 µM (inactive) | GI50 (NCI-H226): 39 µM (inactive) | GI50 (SK-OV-3): 84.5 µM (inactive) | GI50 (SNB-19): 43.6 µM (inactive) | GI50 (SW-620): > 100 µM (inactive) | GI50 (OVCAR-4): 33.5 µM (inactive)
